Like-named read-outs stand apart in the source and are kept apart here.
What was measured:
[1] = tested on: Chinese Hamster Ovary Cells (CHO); experiment: In vitro chromosome aberration assay (incl. mitotic index); type: cell-based
HeLa cells = experiment: MTS cell proliferation and/or cytotoxicity assay; type: cell-based, Human; settings: Homo sapiens, HeLa
In short: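 HeLa cells seeded at 4,500 cells/well, exposed to compounds from day 1 for 3 days at 37 °C, 5% CO2. Viability by MTS/PMS (20:1) with 4 h incubation, absorbance at 490 nm. Values are concentrations giving 50% antiproliferative response.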

[2] = target: c-Myc template DNA (c-myc quadruplex); experiment: Quadruplex binding / stop assay (Taq polymerase arrest, capillary electrophoresis)
Description: A high throughput polymerase arrest assay has been developed. The assay comprises contacting a template nucleic acid, often DNA, with a primer, which also is often DNA; contacting the primer/template complex with a compound described herein (also referred to as a “test compound”); contacting the primer/template complex with a polymerase; and separating reaction products. The assay often includes the step of denaturing the primer/template complex mixture and then renaturing the complex, which often is carried out before a test molecule is added to the system. Multiple assays often are carried out using varying concentrations of a test compound, such that an IC50 value can be obtained, for example. The reaction products often include extended primers of different lengths.
Thus, the reaction mixture often includes at least two reaction products when a test compound interacts with a quadruplex structure in the template, one having a completely extended primer and one having an incompletely extended primer, and these two reaction products are separated. The products may be separated using any convenient separation method, such as mass spectrometry and in one embodiment, capillary electrophoresis.
In an embodiment, a primer oligonucleotide covalently linked to a fluorescent label is contacted with template DNA. The resulting complex is contacted with a test molecule and then contacted with a polymerase capable of extending the primer. The reaction products then are separated and detected by capillary electrophoresis. A longer primer sequence was used for practicing this embodiment as compared to embodiments where the primer includes no covalently-linked fluorophore or where capillary electrophoresis is not utilized for separation. Deoxynucleotides are added at any stage of the assay before the separation, often when the primer is contacted with the template DNA. The template DNA/primer complex often is denatured (e.g., by increasing the temperature of the system) and then renatured (e.g., by cooling the system) before a test compound is added).
The mixture was denatured at 95° C. for 5 minutes and, after cooling down to room temperature, was incubated at 37° C. for 15 minutes.
After cooling down to room temperature, 1 mM KCl and the test compound (various concentrations) were added and the mixture incubated for 15 minutes at room temperature. The primer extension was performed by adding 10 mM KCl and Taq DNA Polymerase (2.5 U/reaction, Promega) and incubating at 70° C. for 30 minutes. The reaction was stopped by adding 1 μl of the reaction mixture to 10 μl Hi-Di Formamide mixed and 0.25 μl LIZ120 size standard. Hi-Di Formamide and LIZ120 size standard were purchased from Applied Biosystems.
The partially extended quadruplex arrest product was between 61 or 62 bases long and the full-length extended product was 99 bases long. The products were separated and analyzed using capillary electrophoresis. Capillary electrophoresis was performed using an ABI PRISM 3100-Avant Genetic Analyzer.
Stop Assays. […] A fluorescently labeled primer DNA is then annealed to the 3′ end of the template DNA. A DNA polymerase such as Taq polymerase is then introduced to synthesize a complementary strand of DNA by extending from the fluorescently labeled primer. When the progress of the Taq polymerase is unhindered, it synthesizes a full-length copy of the template.
These products are visualized by capillary electrophoresis.

[3] = CHO, positive control high dose (H)
[4] = CHO, positive control low dose (L)
[5] = CHO, positive control low dose (L), 20 hrs
[6] = 72 h, concentration at which 50% of antiproliferative cell response is seen, 3 days incubation, read-out: MTS Data Hella
[7] = read-out: Stop Data c-Myc μM, concentration at which 50% of the DNA was arrested (arrested:full-length 1:1)
[8] = HeLa cells, MTS, read-out: Hela MTS
[9] = read-out: S DATA, Table 1D, stop assay data

Row | IC50 [2, 7] [µM] | IC50 [2, 9] [µM] | Compound | IC50 (HeLa cells; [6]) [nM] | IC50 (HeLa cells; [8]) [nM] | further results
1 | – | – | CO[C@@]12[C@H](COC(N)=O)C3=C(C(=O)C(C)=C(N)C3=O)N1C[C@@H]1N[C@@H]12 [MMC] | – | – | % CA 3 HRS [1, 3]: 42.0%; FI 3 HRS [1, 3]: 14.0; % CA 3 HRS [1, 4]: 20.3%; FI 3 HRS [1, 4]: 6.8; % CA 20 HRS [1, 5]: 26.5%; FI 20 HRS [1, 5]: 8.8; % MI 20 HRS ([1]; average mitotic index, positive control low dose (L), 20 hrs): 5%; % MI ([1]; average mitotic index, positive control low dose (L), first column (time not given)): 6%
2 | 1.75 | – | CN1CCCC1CCNC(=O)c1cn2c3c(c(N4CC[C@@H](N)C4)c(F)cc3c1=O)Oc1c-2ccc2ccccc12 (stereo partly drawn) [compound 110] | 250 | – | –
3 | 1 | – | CN1CCCC1CCNC(=O)c1cn2c3c(c(NCCN4CCCC4)c(F)cc3c1=O)Oc1cc3c(cc1-2)oc1ccccc13 (stereo not drawn) [compound 306] | 3200 | – | –
4 | 0.18 | – | CN1CCCC1CCNC(=O)c1cn2c3cc4c(cc3oc3c(NCCN5CCCC5)c(F)cc(c1=O)c32)c(=O)c1ccccc14 (stereo not drawn) [compound 575] | 2100 | – | –
5 | – | 3.3 | O=C(NCCN1CCCC1)c1cn2c3c(c(SCCc4ccccn4)c(F)cc3c1=O)Oc1cc3ccccc3cc1-2 [compound 1782] | – | 2100 | –
6 | 0.375 | – | O=C(CN1CCCC1)N[C@@H]1CCN(c2c(F)cc3c(=O)c(C(=O)NCCN4CCCC4)cn4c3c2Oc2cc3c(cc2-4)oc2ccccc23)C1 [compound 506] | 3400 | – | –
7 | 0.375 | – | CCN(C)CCCC(C)NC(=O)c1cn2c3c(c(NCCN4CCCC4)ccc3c1=O)Oc1cc3ccccc3cc1-2 (stereo not drawn) [compound 543] | 200 | – | –
8 | – | 0.375 | O=C(NCCN1CCCC1)c1cn2c3c(c(N4CC5CCCNC5C4)ccc3c1=O)Oc1cc3ccccc3cc1-2 (stereo not drawn) [compound 1732] | – | 200 | –
9 | 1.75 | – | N[C@@H]1CCN(c2c(F)cc3c(=O)c(C(=O)NCCN4CCCC4)cn4c3c2Oc2ccccc2-4)C1 [compound 112] | 220 | – | –
10 | – | 0.375 | CN1CCCC1CCNC(=O)c1cn2c3c(c(N4CC5CCCNC5C4)c(F)cc3c1=O)Oc1cc3ccccc3cc1-2 (stereo not drawn) [compound 1636] | – | 150 | –
11 | – | 0.375 | CN(C)CCCCNC(=O)c1cn2c3c(c(N4CC5CCCNC5C4)c(F)cc3c1=O)Oc1cc3ccccc3cc1-2 (stereo not drawn) [compound 1639] | – | 100 | –
12 | – | 0.18 | CN(C)CCCCNC(=O)c1cn2c3c(c(N4CCC(N)C4)ccc3c1=O)Oc1cc3ccccc3cc1-2 (stereo not drawn) [compound 1559] | – | 240 | –
13 | – | 0.18 | O=C(NCCN1CCCC1)c1cn2c3c(c(N4CC5CCCNC5C4)c(F)cc3c1=O)Oc1cc3ccccc3cc1-2 (stereo not drawn) [compound 1635] | – | 300 | –
14 | – | 2.9 | O=C(NCCN1CCCC1)c1cn2c3c(c(N4CCC(c5cnccn5)C4)c(F)cc3c1=O)Oc1ccc(Cl)cc1-2 (stereo not drawn) [compound 1795] | – | 500 | –
15 | 0.375 | – | O=C(CCN1CCCC1)N[C@@H]1CCN(c2c(F)cc3c(=O)c(C(=O)NCCN4CCOCC4)cn4c3c2Oc2cc3c(cc2-4)oc2ccccc23)C1 [compound 504] | 3400 | – | –
16 | – | 0.25 | O=C(NCCN1CCOCC1)c1cn2c3c(c(N4CC5CCCNC5C4)c(F)cc3c1=O)Oc1cc3ccccc3cc1-2 (stereo not drawn) [compound 1640] | – | 30 | –
17 | 0.75 | – | CN1CCCC1CCNC(=O)c1cn2c3c(c(NCCCN4CCOCC4)c(F)cc3c1=O)Oc1cc3c(cc1-2)oc1ccccc13 (stereo not drawn) [compound 362] | 4000 | – | –
18 | 1 | – | CN(CCc1ccccn1)C(=O)c1cn2c3c(c(NCCCN4CCOCC4)c(F)cc3c1=O)Oc1cc3c(cc1-2)-c1ccccc1C3 [compound 307] | 3100 | – | –
19 | – | 0.62 | CN1CCCC1CCNC(=O)c1cn2c3c(c(N4CCC(N)C4)c(F)cc3c1=O)Nc1cc3ccccc3cc1-2 (stereo not drawn) [compound 1645] | – | 3300 | –
20 | 0.25 | – | N[C@@H]1CCN(c2c(F)cc3c(=O)c(C(=O)NCCN4CCCC4)cn4c3c2Oc2cc3ccccc3cc2-4)C1 [compound 565] | 200 | – | –
21 | 0.75 | – | CN(C)CCCCNc1c(F)cc2c(=O)c(C(=O)NCCN3CCCC3)cn3c2c1Oc1cc2c(cc1-3)oc1ccccc12 [compound 369] | 3500 | – | –
22 | 0.375 | – | CC(C)NCCCNC(=O)c1cn2c3c(c(N4CCC(N)C4)c(F)cc3c1=O)Oc1cc3ccccc3cc1-2 (stereo not drawn) [compound 541] | 270 | – | –
23 | – | 0.75 | CN(C)c1cccc(CNc2c(F)cc3c(=O)c(C(=O)NCCC4CCCN4C)cn4c3c2Oc2cc3ccccc3cc2-4)c1 (stereo not drawn) [compound 1688] | – | 250 | –
24 | 0.375 | – | CN(C)CCCCNc1c(F)cc2c(=O)c(C(=O)NCCN3CCOCC3)cn3c4cc5c(cc4oc1c23)c(=O)c1ccccc15 [compound 518] | 2200 | – | –

Row | IC50 [2, 7] [µM] | IC50 [2, 9] [µM] | Compound | IC50 (HeLa cells; [6]) [nM] | IC50 (HeLa cells; [8]) [nM] | further results
25 | 0.375 | – | CN1CCCC1CCNC(=O)c1cn2c3c(c(N4CCC(N)C4)ccc3c1=O)Oc1cc3ccccc3cc1-2 (stereo not drawn) [compound 529] | 750 | – | –
26 | 0.25 | – | NC1CCN(c2c(F)cc3c(=O)c(C(=O)O)cn4c5cc6c(=O)c7ccccc7c(=O)c6cc5oc2c34)C1 (stereo not drawn) [compound 25] | 200 | – | –
27 | 0.375 | – | N[C@H]1CCN(c2c(F)cc3c(=O)c(C(=O)NCCCN4CCOCC4)cn4c5cc6c(cc5oc2c34)c(=O)c2ccccc26)C1 [compound 511] | 3100 | – | –
28 | 0.5 | – | CN1CCCC1CCNC(=O)c1cn2c3c(c(N4CC[C@@H](NC(=O)CCN5CCCC5)C4)c(F)cc3c1=O)Oc1cc3c(cc1-2)oc1ccccc13 (stereo partly drawn) [compound 483] | 3200 | – | –
29 | 0.75 | – | CN1CCC(Nc2c(F)cc3c(=O)c(C(=O)NCCC4CCCN4C)cn4c3c2Oc2cc3ccccc3cc2-4)CC1 (stereo not drawn) [compound 388] | 310 | – | –
30 | 0.375 | – | CN1CCN(CCCNC(=O)c2cn3c4c(c(N5CC[C@@H](NC(=O)CCN6CCCCC6)C5)c(F)cc4c2=O)Oc2cc4c(cc2-3)oc2ccccc24)CC1 [compound 508] | 3200 | – | –
31 | 0.18 | – | CN(C)CCCCNC(=O)c1cn2c3cc4c(=O)c5ccccc5c(=O)c4cc3oc3c(NCCN4CCCC4)c(F)cc(c1=O)c32 [compound 574] | 4000 | – | –
32 | 0.75 | – | CN(C)/C=N/CCCNC(=O)c1cn2c3c(c(N4CC[C@@H](N)C4)c(F)cc3c1=O)Oc1cc3ccccc3cc1-2 [compound 371] | 3500 | – | –
33 | 0.58 | – | CN(C)CCCCNC(=O)c1cn2c3c(c(N4CC[C@H](N)C4)c(F)cc3c1=O)Oc1cc3ccccc3cc1-2 [compound 475] | 240 | – | –
34 | 0.5 | – | O=C(CN1CCCCC1)N[C@@H]1CCN(c2c(F)cc3c(=O)c(C(=O)NCCN4CCCC4)cn4c3c2Oc2cc3c(cc2-4)oc2ccccc23)C1 [compound 482] | 3400 | – | –
35 | 0.75 | – | O=C(NCCN1CCOCC1)c1cn2c3c(c(NCCCN4CCOCC4)c(F)cc3c1=O)Oc1cc3c(cc1-2)oc1ccccc13 [compound 361] | 4200 | – | –
36 | 0.75 | – | O=C(CCN1CCCC1)N[C@@H]1CCN(c2c(F)cc3c(=O)c(C(=O)NCCN4CCCC4)cn4c3c2Oc2cc3c(cc2-4)oc2ccccc23)C1 [compound 376] | 2400 | – | –
37 | 0.75 | – | Nc1c(F)c(NCCCN2CCOCC2)c2c3c1c(=O)c(C(=O)NCCN1CCCC1)cn3-c1cc3ccccc3cc1O2 [compound 377] | 2200 | – | –
38 | 1.75 | – | CN(C)C1CCN(c2c(F)cc3c(=O)c(C(=O)NCCC4CCCN4C)cn4c3c2Oc2cc3ccccc3cc2-4)C1 (stereo not drawn) [compound 104] | 2800 | – | –
39 | – | 0.375 | CN1CCCC1CCNC(=O)c1cn2c3c(c(NCCCN(CCO)CCO)c(F)cc3c1=O)Oc1cc3ccccc3cc1-2 (stereo not drawn) [compound 1686] | – | 400 | –
40 | 0.375 | – | CN1CCCC1CCNc1c(F)cc2c(=O)c(C(=O)NCCCN3CCOCC3)cn3c4cc5c(cc4oc1c23)c(=O)c1ccccc15 (stereo not drawn) [compound 523] | 1600 | – | –
41 | 0.18 | – | CN(C)CCCCNc1c(F)cc2c(=O)c(C(=O)NCCC3CCCN3C)cn3c4cc5oc6cc([N+](=O)[O-])ccc6[nH]c5cc4oc1c23 (stereo not drawn) [compound 569] | 7800 | – | –
42 | 3 | – | CCN(CC)CCCC(C)NC(=O)c1cn2c3c(c(N4CCC(c5cnccn5)C4)ccc3c1=O)Oc1ccccc1-2 (stereo not drawn) [compound 29] | 2000 | – | –
43 | – | 0.375 | CN1CCCC1CCNC(=O)c1cn2c3c(c(NCCc4c[nH]cn4)c(F)cc3c1=O)Oc1cc3ccccc3cc1-2 (stereo not drawn) [compound 1657] | – | 500 | –
44 | – | 1.5 | CN1CCCC1CCNC(=O)c1cn2c3c(c(N)c(F)cc3c1=O)Oc1c-2ccc2ccccc12 (stereo not drawn) [compound 1763] | – | 3800 | –
45 | – | 0.125 | O=C(NCCN1CCCC1)c1cn2c3cc4c(cc3oc3c(N5CC6CCCNC6C5)c(F)cc(c1=O)c32)c(=O)c1ccccc14 (stereo not drawn) [compound 1726] | – | 2600 | –
46 | 0.9 | – | N[C@H]1CCN(c2c(F)cc3c(=O)c(C(=O)NCCN4CCCC4)cn4c3c2Oc2cc3ccccc3cc2-4)C1 [compound 341] | 280 | – | –
47 | 0.375 | – | CN(C)CCCCNc1c(F)cc2c(=O)c(C(=O)NCCCN3CCOCC3)cn3c4cc5c(cc4oc1c23)c(=O)c1ccccc15 [compound 522] | 1700 | – | –

Row | Compound | IC50 [2, 7] [µM] | IC50 [2, 9] [µM] | IC50 (HeLa cells; [6]) [nM] | IC50 (HeLa cells; [8]) [nM] | further results
48 | CN1CCCC1CCNC(=O)c1cn2c3c(c(N4CCC(c5cnccn5)C4)c(F)cc3c1=O)Oc1cc3ccccc3cc1-2 (stereo not drawn) [compound 1512] | – | 0.78 | – | 3100 | –

— patent US7507727B2, “Substituted quinobenzoxazine analogs and methods of using thereof” (Cylene Pharmaceuticals, Inc., priority 2003, dated 2009)
